# Laboratory results taken from patent US9795679B2, “Biodegradable compositions suitable for controlled release” (INGELL TECHNOLOGIES HOLDING B.V., priority 2011, dated 2017).
# Assay: Celecoxib solubility in PBS with Tween 80
# Type: physicochemical
# Details: PBS with 0.2% Tween 80, aqueous with cosolvent or surfactant or cyclodextrin
smiles,measurement,value
Cc1ccc(-c2cc(C(F)(F)F)nn2-c2ccc(S(N)(=O)=O)cc2)cc1 [celecoxib],solubility,100 to 200 µg/mL
